{
  "source": "patent US20210163929A1",
  "about": "“METHODS AND COMPOSITIONS FOR THE TREATMENT OF HEPATIC AND METABOLIC DISEASES” (The Regents of the University of California, priority 2018, published 2021)",
  "key": {"[1]": {"system": "hepatic inflammation and fibrosis", "conditions": "30 mg/kg/day, gavage, every 2 days for 4 weeks; cited from earlier work"}, "[2]": {"system": "miR-22 in HCT116 cells", "assay": "miR-22 induction in HCT116 cells treated with bile acids or HDAC inhibitors", "assay_type": "cell-based, human"}, "[3]": {"system": "miR-22 in HCT116 cells", "assay": "miR-22 induction in HCT116 cells treated with bile acids or HDAC inhibitors", "assay_type": "cell-based, human", "method": "A time course study in which HCT116 cells were treated by 150 μM CDCA for indicated times. […] Data are presented as mean+/−S.D. * denotes p<0.05.\nData are shown as mean+/−S.D. * p<0.05; ** p<0.01; ***p<0.001.\nOCA is a semi-synthetic bile acid, which as the structure of 6α-ethyl-chenodeoxycholic acid.", "remark": "listed apart in the source"}, "[4]": {"system": "Western diet-induced obese C57BL/6 male mice", "assay": "WD-induced obese mice treated with OCA, miR-22 inhibitors or both for 3 weeks", "assay_type": "in vivo, mouse", "method": "Mice: C57BL/6 wild-type (WT) male mice (Charles River Laboratories, Inc., Wilmington, Mass., USA) were housed in regular filter-top cages at 22° C. with a 12 h/12 h light/dark cycle. For Western diet (WD)-induced obesity models, mice were fed a WD (21% fat, 34% sucrose, and 0.2% cholesterol, w/w) or control diet (CD 5% fat, 12% sucrose, and 0.01% cholesterol, w/w; Harlan Teklad, Indianapolis, Ind., USA) after weaning (3 weeks). When those mice were 7-months old, WD-fed mice were randomly assigned to […] and received vehicle (0.5% carboxyl methyl cellulose sodium), OCA ([…], daily, oral gavage), miR-22 inhibitors (1×10^9 PFU, tail vein injection, once a week), and the combination of OCA and miR-22 inhibitors for three weeks. For alcohol-induced steatosis models, 3-month-old C57BL/6 male mice were initially fed a control Lieber-DeCarli diet (F1259SP, Bio-Serv, Flemington, N.J., USA) ad libitum for 5 days followed by 5% alcohol supplementation for 21 days (F1258SP, Bio-Serv). Then, those alcohol-fed mice received adenovirus (negative control) or miR-22 inhibitors (1×10^9 PFU, tail vein injection, 3 times in 10 days). All the mice were euthanized 1 day after the last viral injection. Animal experiments were conducted in accordance with the National Institutes of Health Guide for the Care and Use of Laboratory Animals under protocols approved by the Institutional Animal Care and Use Committee of the University of California, Davis.\nBiochemical analysis: Hepatic triglyceride and cholesterol (BioAssay Systems, Hayward, Calif., USA) levels and serum lipopolysaccharide (LPS) (Thermo Fisher Scientific), alanine transaminase (ALT) (Pointe Scientific), and alkaline phosphatase (ALP) (Pointe Scientific) levels were quantified according to the manufacturer's instructions.\nInsulin tolerance test: After 6 h food deprivation, tail vein blood was used to establish fasting blood glucose levels. For insulin tolerance testing, insulin (1 U/kg body weight, i.p.; MilliporeSigma, Burlington, Mass., USA) was given followed by measuring blood glucose level at various times with the OneTouch Ultra 2 (Johnson & Johnson Co., New Brunswick, N.J., USA). The area under the curve (AUC) of the blood glucose levels over time was calculated.\nSerum FGF21 and glucagon-like peptide (GLP-1) secretion assay: Serum FGF21 levels were quantified by ELISA (Boster Biological Technology, Pleasanton, Calif., USA). For GLP-1 secretion assays, mice were unfed for 12 h followed by orally administration of dipeptidyl peptidase-4 inhibitor, sitagliptin ([…]; TSZ Chem, Framingham, Mass., USA) and a liquid diet (Ensure Plus, […]; Ross Laboratories, Columbus, Ohio, USA), which contains 15% protein, 57% carbohydrate, and 28% fat to stimulate GLP-1 secretion, as previously described (25). Blood samples were collected immediately (time 0) as well as 15, and 30 min after Ensure Plus feeding. Serum GLP-1 was quantified by a ELISA kit (RayBiotech Life, Norcross, Ga., USA)."}, "[5]": {"system": "patients with NASH and T2DM", "conditions": "cited from earlier work"}, "[6]": {"system": "FGF21 signaling in Huh7 cells", "assay": "Huh7 cells infected/transfected with miR-22 or miR-22 inhibitors, mRNA and Western blot", "assay_type": "cell-based, human", "conditions": "adenovirus control or miR-22 inhibitors followed by DMSO or OCA 5 μM for 6 h", "source_text": "However, miR-22 was induced in the livers and adipose tissues of WD-fed mice (FIG. 15B). Similarly, using human liver biopsy specimens, miR-22 levels were positively associated with hepatic fat content and inversely correlated with the mRNA levels of PGC-1α, a key regulator of mitochondrial biogenesis (FIG. 15C). […] To study the downstream effects of miR-22, miR-22 mimics (ID: MIMAT0000077, […] (SEQ ID NO:2), Applied Biological Materials Inc.) were used to transfect human liver Huh7 cells.\n(§1) Cell culture: Huh7 cells were obtained from Japanese Collection of Research Bioresources and maintained in DMEM with 10% FBS. Cells were treated with DMSO, OCA (5 or 20 μM; Apexbio Technology LLC, Houston, Tex., USA) in serum-free media for indicated time. Cells were plated (1×10^6 cells per 60-mm dish, 2×10^5 cells per 6-well plates, and 1×10^5 cells per 24-well plates) overnight prior to treatment or infection.\nConstructs and luciferase reporter assay: The 3′ untranslated region (3′-UTR) of the FGFR1 gene containing the putative binding site for miR-22 and the entire 3′-UTR of the FGF21 gene (105 bp) was cloned into the psiCHECK2 vector (Promega, Madison, Wis., USA) using NotI and XhoI. For cell infection, adenovirus (negative control), adenoviral-delivered miR-22 (miR-22), or adenoviral-miR-22 inhibitors (SEQ ID NO:1; Applied Biological Materials Inc., Richmond, BC) were used. Forty-eight h post infection, cells were transfected with psiCHECK2-FGR1-3′UTR or psiCHECK2-FGF21 3′UTR using Lipofectamine 2000 (Thermo Fisher Scientific). Twenty-four h later, cells were harvested for firefly and Renilla luciferase assay using the Dual-luciferase Reporter system (Promega). Renilla luciferase activity was standardized to firefly luciferase activity.\n(§2) Western blot: Western blot was performed as described previously (26). Antibodies used were anti-FGFR1, FGF21, FASN, phosphor (P)-AMPK, total (T)-AMPK, phosphor (P)-ERK1/2, and total (T)-ERK1/2 (Cell Signaling Technology, Beverly, Mass., USA), β-ACTIN (MilliporeSigma), CD36 (Bioss Antibodies Inc., Woburn, Mass., USA), CYCLIN A2, PGC1α (Novus Biologicals, LLC, Littleton, Colo., USA), and PPARα (Santa Cruz Biotechnology, Santa Cruz, Calif., USA)."}, "[7]": {"system": "FGF21 signaling and miR-22 in Huh7 cells", "assay": "mRNA and protein levels in Huh7 cells treated with OCA/INT-747, CDCA, butyrate or RA plus butyrate", "assay_type": "cell-based, human", "conditions": "for mRNA and protein levels of FGF21, FGFR1 and PGC1α: OCA 5 or 20 μM", "method": "as §1\nGene expression quantification: Total RNA was extracted using TRIzol Reagent (Thermo Fisher Scientific, Waltham, Mass., USA), and cDNA was generated using High Capacity RNA-to-cDNA Kit (Applied Biosysterms, Carlsbad, Calif., USA). qRT-PCR was performed on ABI 7900HT Fast Real-time PCR system using Power SYBR® Green PCR Master Mix (Applied Biosysterms).\nas §2"}, "[8]": {"conditions": "1-day treatment, SAHA (5, butyrate 5 mM, propionate 10 mM, valerate 10 mM)"}},
  "note": "“Also recorded” adds a separate entry of the source.",
  "data": [
    {"compound": "CC[C@H]1[C@@H](O)[C@@H]2[C@H](CC[C@]3(C)[C@@H]([C@H](C)CCC(=O)O)CC[C@@H]23)[C@@]2(C)CC[C@@H](O)C[C@@H]12", "note": "[OCA, obeticholic acid]", "values": [
      {"measurement": "hepatic inflammation and fibrosis", "setting": "[1]", "result": "reduces hepatic inflammation and fibrosis"},
      {"measurement": "miR-22 level", "setting": "[2]; 24 hours, CDCA 50, 100, 150 μM, OCA 25 and 50 μM", "result": "induced miR-22"},
      {"measurement": "CCNA2 expression", "setting": "[3]", "result": "reduced CCNA2"},
      {"measurement": "FXR target FGF19 expression", "setting": "[3]", "result": "induced FXR target FGF19"},
      {"measurement": "hepatic fat accumulation (steatosis score)", "setting": "[4]; WD-fed 7-month-old mice, 3 weeks, OCA 10 mg/g body weight daily oral gavage, miR-22 inhibitors 1×10^9 PFU once a week", "result": "reduced hepatic fat accumulation"},
      {"measurement": "hepatic cholesterol level", "setting": "[4]; WD-fed mice, 3 weeks treatment", "result": "reduced hepatic cholesterol level"},
      {"measurement": "hepatic triglyceride levels", "setting": "[4]; WD-fed mice, 3 weeks treatment", "result": "did not significantly reduce hepatic triglyceride levels"},
      {"measurement": "release of GLP-1 (serum)", "setting": "[4]; WD-fed mice, 3 weeks treatment", "result": "stimulated the release of GLP-1"},
      {"measurement": "serum FGF21 level", "setting": "[4]; WD-fed mice, 3 weeks treatment", "result": "reduced"},
      {"measurement": "hepatic FASN and CD36", "setting": "[4]; diet-induced obese mice", "result": "reduced FASN and CD36"},
      {"measurement": "hepatic FGF21 and FGFR1", "setting": "[4]; diet-induced obese mice", "result": "induced hepatic FGF21 and FGFR1"},
      {"measurement": "expression of hepatic Pepck, G6pase, and Fbp1", "setting": "[4]; reduced by WD intake", "result": "reversed those reductions"},
      {"measurement": "patients with fibrosis having ≥1 stage of fibrosis improvement", "setting": "[5]; clinical trials, 19% in the placebo group, p<0.05", "result": 41, "unit": "%"},
      {"measurement": "patients reaching the primary endpoint of a ≥2-point improvement in NAFLD activity score without worsening fibrosis", "setting": "[5]; clinical trials, 21% in the placebo group, p<0.01", "result": 57, "unit": "%"},
      {"measurement": "insulin sensitivity", "setting": "[5]; clinical trials", "result": "improves insulin sensitivity"},
      {"measurement": "markers of liver inflammation and fibrosis", "setting": "[5]; clinical trials", "result": "reduced markers of liver inflammation and fibrosis"},
      {"measurement": "deaths and liver injury", "setting": "[5]; overdose", "result": "caused deaths and liver injury"},
      {"measurement": "FGF21, FGFR1, P-AMPK, and P-ERK1/2 protein levels", "setting": "[6]", "result": "same effects in increasing FGF21, FGFR1, P-AMPK, and P-ERK1/2"},
      {"measurement": "miR-22 level", "setting": "[7]; 6 h", "result": "induced miR-22"},
      {"measurement": "AMPK and ERK1/2 activation", "setting": "[7]; 6 hours", "result": "activated AMPK and ERK1/2"},
      {"measurement": "βKlotho protein level", "setting": "[7]; 6 hours", "result": "modestly increased"},
      {"measurement": "mRNA and protein levels of FGF21, FGFR1 and PGC1α", "setting": "[7]; 6 hours", "result": "induced FGF21 signaling by increasing the expression of FGF21, FGF21 receptor (FGFR1), and PGC1α; also recorded: increased mRNA and protein levels of FGF21 and FGFR1 as well as PGC1α"},
      {"measurement": "mRNA and protein levels of FGF21, FGFR1 and PGC1α", "setting": "[7]; 6 hours, listed as INT-747", "result": "markedly increased the mRNA and protein level of FGF21 and FGFR1"}
    ]},
    {"compound": "O=CO", "note": "[formate]", "values": [
      {"measurement": "miR-22 level", "setting": "[2]; [8]", "result": "not able to induce miR-22"}
    ]},
    {"compound": "CCC(=O)O", "note": "[propionate]", "values": [
      {"measurement": "miR-22 level", "setting": "[2]; [8]", "result": "induced miR-22"}
    ]},
    {"compound": "CCCCC(=O)O", "note": "[valerate]", "values": [
      {"measurement": "miR-22 level", "setting": "[2]; [8]", "result": "induced miR-22"}
    ]},
    {"compound": "CC(=O)O", "note": "[acetate]", "values": [
      {"measurement": "miR-22 level", "setting": "[2]; [8]", "result": "not able to induce miR-22"}
    ]},
    {"compound": "O=C(CCCCCCC(=O)Nc1ccccc1)NO", "note": "[SAHA, suberanilohydroxamic acid]", "values": [
      {"measurement": "miR-22 level", "setting": "[2]; [8]", "result": "induced miR-22"}
    ]}
  ]
}
